Like-named read-outs stand apart in the source and are kept apart here.
Key:
Type in all cases: cell-based
[1] = tested on: renal carcinoma cells (786-O); assay: In vitro potency (CellTiter-Glo, 96 h), 786-O; details: Homo sapiens, 786-0, 96 h
In short: (§1)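 Growth inhibition after 96 h at 37 °C with test article, measured by luminescence; cells in RPMI 1640, 20% FBS.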

[2] = tested on: melanoma cells (A2058); assay: In vitro potency (CellTiter-Glo, 96 h), A2058; details: Homo sapiens, A2058, 96 h
Description: (§2) In vitro potency was assessed on multiple cancer cell lines. All cell lines were authenticated by STR profiling at IDEXX Bioresearch and cultured for no more than 2 months after resuscitation. Cells cultured in log-phase growth were seeded for 24 hours in 96-well plates containing […] RPMI 1640 supplemented with 20% FBS. Serial dilutions of antibody-drug conjugates in cell culture media were prepared at 4× working concentrations, and 50 μL of each dilution was added to the 96-well plates. Following addition of test articles, cells were incubated with test articles for 4 days at 37 0° C. After 96 hours, growth inhibition was assessed by CellTiterGlo® (Promega, Madison, WI) and luminescence was measured on a plate reader.
(§3) In Table 7, IC50 values for ADCs are given in ng/mL. Cell viability was determined by CellTiter-Glo staining after 96 h exposure to ADC. ND=Not Determined. Ag2 is an antibody targeting a ubiquitous and readily internalizable antigen. The cancer cell lines tested are renal carcinoma cells (786-0), melanoma cells (A2058), pancreatic cancer cells (BxPC3), non-small-cell lung cancer cells (Calu1), anaplastic large cell lymphoma cells (DEL, DELBVR, Karpas299), Hodgkin's lymphoma cells (L540cy), (Ls174T), breast cancer cells (MDA-MB-231), acute myeloid leukemia cells (MOLM-13), and B-lymphocyte cancer cells (SU-DHL4).
as §2, with “FBS.” for “FBS. Serial dilutions of antibody-drug conjugates in cell culture media were prepared at 4× working concentrations, and 50 μL of each dilution was added to the 96-well plates.”
(§4) Cell viability was determined by CellTiter-Glo staining after 96 h exposure to the compound. ND=Not Determined. The cancer cell lines tested are renal carcinoma cells (786-0), melanoma cells (A2058), pancreatic cancer cells (BxPC3), non-small-cell lung cancer cells (Calu1), anaplastic large cell lymphoma cells (DEL, DELBVR, Karpas299), Hodgkin's lymphoma cells (L540cy), (Ls 174T), breast cancer cells (MDA-MB-231), acute myeloid leukemia cells (MOLM-13), B-lymphocyte cancer cells (SU-DHL4), multiple myeloma cells (MM.1R), (U266), and melanoma cells (SK-MEL-5).
as §2, with “37°” for “37 0°”
(§5) In the following Tables IC50 values for ADCs and CPT free drugs are given in ng/mL and nmol/L concentrations. Cell viability was determined by CellTiter-Glo staining after 96 h exposure to ADC or CPT free drug.
(§6) Cell viability was determined by CellTiter-Glo staining after 96 h exposure to ADC. ND=Not Determined.

[3] = tested on: pancreatic cancer cells (BxPC3); assay: In vitro potency (CellTiter-Glo, 96 h), BxPC3; details: Homo sapiens, BXPC-3, 96 h
In short: (§7)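 IC50 (ng/mL) was derived from growth inhibition of STR-authenticated lines held in culture under 2 months after thawing. Cells were grown in RPMI 1640 plus 20% FBS and treated with ADC dilution series for 96 h at 37 °C.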

[4] = tested on: non-small-cell lung cancer cells (Calu1); assay: In vitro potency (CellTiter-Glo, 96 h), Calu1; details: Homo sapiens, Calu-1, 96 h
Description: as §2, §3
as §2, with “FBS.” for “FBS. Serial dilutions of antibody-drug conjugates in cell culture media were prepared at 4× working concentrations, and 50 μL of each dilution was added to the 96-well plates.”
as §4
as §2, with “37°” for “37 0°”
as §5, §6

[5] = tested on: anaplastic large cell lymphoma cells (DEL); assay: In vitro potency (CellTiter-Glo, 96 h), DEL
In short: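 Authenticated lines (STR), used within 2 months of resuscitation, were seeded 24 h before treatment. Exposure to ADC dilutions lasted 96 h at 37 °C in RPMI 1640 with 20% FBS; viability was quantified luminescently.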

[6] = tested on: anaplastic large cell lymphoma cells (DELBVR); assay: In vitro potency (CellTiter-Glo, 96 h), DELBVR
In short: as §1

[7] = tested on: anaplastic large cell lymphoma cells (Karpas299); assay: In vitro potency (CellTiter-Glo, 96 h), Karpas299; details: Homo sapiens, KARPAS-299, 96 h
In short: as §1

[8] = tested on: Hodgkin's lymphoma cells (L540cy); assay: In vitro potency (CellTiter-Glo, 96 h), L540cy
In short: as §1

[9] = tested on: breast cancer cells (MDA-MB-231); assay: In vitro potency (CellTiter-Glo, 96 h), MDA-MB-231; details: Homo sapiens, MDA-MB-231, 96 h
In short: as §1

[10] = tested on: acute myeloid leukemia cells (MOLM-13); assay: In vitro potency (CellTiter-Glo, 96 h), MOLM-13; details: Homo sapiens, MOLM-13, 96 h
In short: as §7

[11] = tested on: B-lymphocyte cancer cells (SU-DHL4); assay: In vitro potency (CellTiter-Glo, 96 h), SU-DHL-4; details: Homo sapiens, SU-DHL-4, 96 h
In short: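 Four-day continuous exposure at 37 °C to serially diluted ADC or free camptothecin payload, in RPMI 1640 with 20% FBS after 24 h pre-plating. Luminescent signal gave IC50 (ng/mL; nmol/L).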

[12] = tested on: Ls174T cells; assay: In vitro potency (CellTiter-Glo, 96 h), Ls174T; details: Homo sapiens, LS174T, CPT free drugs
In short: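 Log-phase cells were seeded for 24 h in RPMI 1640 with 20% FBS, then exposed to serially diluted antibody-drug conjugates or free camptothecin drug for 4 days at 37 °C. Growth inhibition was read by luminescence, and IC50 values were reported in ng/mL and nmol/L.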

[13] = CPT free drugs, Table 24, CellTiter-Glo after 96 h exposure, read-out: IC50 (nmol/L) 786-O
[14] = CPT free drugs, Table 24, CellTiter-Glo after 96 h exposure, read-out: IC50 (nmol/L) A2058
[15] = CPT free drugs, Table 24, CellTiter-Glo after 96 h exposure, read-out: IC50 (nmol/L) BxPC3
[16] = CPT free drugs, Table 24, CellTiter-Glo after 96 h exposure, read-out: IC50 (nmol/L) Calu1
[17] = CPT free drugs, Table 24, CellTiter-Glo after 96 h exposure, read-out: IC50 (nmol/L) DEL
[18] = CPT free drugs, Table 24, CellTiter-Glo after 96 h exposure, read-out: IC50 (nmol/L) DELBVR
[19] = CPT free drugs, Table 24, CellTiter-Glo after 96 h exposure, read-out: IC50 (nmol/L) Karpas299
[20] = CPT free drugs, Table 24, CellTiter-Glo after 96 h exposure, read-out: IC50 (nmol/L) L540cy
[21] = CPT free drugs, Table 24, CellTiter-Glo after 96 h exposure, read-out: IC50 (nmol/L) MDAMB231
[22] = CPT free drugs, Table 24, CellTiter-Glo after 96 h exposure, read-out: IC50 (nmol/L) MOLM-13
[23] = CPT free drugs, Table 24, CellTiter-Glo after 96 h exposure, read-out: IC50 (nmol/L) SU-DHL-4

Row | Compound | IC50 [1, 13] | IC50 [2, 14] | IC50 [3, 15] | IC50 [4, 16] | IC50 [5, 17] | IC50 [6, 18] | IC50 [7, 19] | IC50 [8, 20] | IC50 [9, 21] | IC50 [10, 22] | IC50 [11, 23] | further results
1 | CC[C@@]1(O)C(=O)OCc2c1cc1n(c2=O)Cc2c-1nc1ccccc1c2CN [Compound 2ae] | 17 nmol/L | 5 nmol/L | 23 nmol/L | 65 nmol/L | 5 nmol/L | 5 nmol/L | 14 nmol/L | 6 nmol/L | 107 nmol/L | 191 nmol/L | 8 nmol/L | 
2 | CC[C@@]1(O)C(=O)OCc2c1cc1n(c2=O)Cc2c-1nc1cc3c(cc1c2CN)OCCO3 [Compound 2af] |  |  |  |  |  |  |  |  |  |  |  | IC50 ([1]; read-out: IC50 (nmol/L) 786-O, CPT free drugs, Table 24, CellTiter-Glo after 96 h exposure): 7 nmol/L; IC50 ([2]; read-out: IC50 (nmol/L) A2058): 2 nmol/L; IC50 ([3]; read-out: IC50 (nmol/L) BxPC3, CPT free drugs, Table 24, CellTiter-Glo after 96 h exposure): 7 nmol/L; IC50 ([4]; read-out: IC50 (nmol/L) Calu1): 57 nmol/L; IC50 ([5]; read-out: IC50 (nmol/L) DEL, CPT free drugs, Table 24, CellTiter-Glo after 96 h exposure): 1 nmol/L; IC50 ([6]; read-out: IC50 (nmol/L) DELBVR, CPT free drugs, Table 24, CellTiter-Glo after 96 h exposure): 1 nmol/L; IC50 ([7]; read-out: IC50 (nmol/L) Karpas299, CPT free drugs, Table 24, CellTiter-Glo after 96 h exposure): 6 nmol/L; IC50 ([8]; read-out: IC50 (nmol/L) L540cy, CPT free drugs, Table 24, CellTiter-Glo after 96 h exposure): 3 nmol/L; IC50 ([9]; read-out: IC50 (nmol/L) MDAMB231, CPT free drugs, Table 24, CellTiter-Glo after 96 h exposure): 39 nmol/L; IC50 ([10]; read-out: IC50 (nmol/L) MOLM-13, CPT free drugs, Table 24, CellTiter-Glo after 96 h exposure): 32 nmol/L; IC50 ([11]; read-out: IC50 (nmol/L) SU-DHL-4, CPT free drugs, Table 24, CellTiter-Glo after 96 h exposure): 2 nmol/L
3 | CC[C@@]1(O)C(=O)OCc2c1cc1n(c2=O)Cc2c-1nc1ccc3c(c1c2CN)OCCO3 [Compound 2ag] | 35 nmol/L | 10 nmol/L | 57 nmol/L | 153 nmol/L | 6 nmol/L | 13 nmol/L | 34 nmol/L | 15 nmol/L | 177 nmol/L | 63 nmol/L | 16 nmol/L | 
4 | [2H]C1([2H])Oc2cc3nc4c(c(CN)c3cc2O1)Cn1c-4cc2c(c1=O)COC(=O)[C@]2(O)CC [Compound 2an] | 1 nmol/L | 0.5 nmol/L | 1 nmol/L | 1 nmol/L | 0.2 nmol/L | 0.2 nmol/L | 1 nmol/L |  | 1 nmol/L | 4 nmol/L | 1 nmol/L | IC50 ([12]; Table 24, CellTiter-Glo after 96 h exposure, read-out: IC50 (nmol/L) Ls174T): 6 nmol/L
5 | CC[C@@]1(O)C(=O)OCc2c1cc1n(c2=O)Cc2c-1nc1cc3c(c(Br)c1c2CN)OCO3 [Compound 5c] |  |  |  |  |  |  |  |  |  |  |  | IC50 ([1]; read-out: 786-O IC50, Table 28, CPT free drugs, renal carcinoma cells 786-O, 96 h, CellTiter-Glo): 1 nmol/L; IC50 ([2]; read-out: A2058 IC50): 5 nmol/L; IC50 ([3]; read-out: BxPC3 IC50, Table 28, CPT free drugs, pancreatic cancer cells BxPC3, 96 h, CellTiter-Glo): 8 nmol/L; IC50 ([4]; read-out: Calu1 IC50): 4 nmol/L; IC50 ([5]; read-out: DEL IC50, Table 28, CPT free drugs, anaplastic large cell lymphoma cells DEL, CellTiter-Glo): 0.3 nmol/L; IC50 ([7]; read-out: Karpas299 IC50, Table 28, CPT free drugs, anaplastic large cell lymphoma cells Karpas299, 96 h, CellTiter-Glo): 1 nmol/L; IC50 ([8]; read-out: L540cy IC50, Table 28, CPT free drugs, Hodgkin's lymphoma cells L540cy, CellTiter-Glo): 0.8 nmol/L; IC50 ([12]; 96 h, read-out: Ls174T IC50, Table 28, Ls174T cells, 96 h, CellTiter-Glo): 6 nmol/L; IC50 ([9]; read-out: MDAMB231 IC50, Table 28, CPT free drugs, breast cancer cells MDA-MB-231, 96 h, CellTiter-Glo): 2 nmol/L; IC50 ([10]; read-out: MOLM-13 IC50, Table 28, CPT free drugs, acute myeloid leukemia cells MOLM-13, 96 h, CellTiter-Glo): 2 nmol/L; IC50 ([11]; read-out: SU-DHL-4 IC50, Table 28, CPT free drugs, B-lymphocyte cancer cells SU-DHL4, 96 h, CellTiter-Glo): 0.5 nmol/L
